Experimental data from patent publication US7820665B2, “Imidazopyridazine inhibitors of PI3 kinase for cancer treatment” (Amgen Inc., priority 2007, dated 2010).
pIC50: −log10 of the molar value.

Key:
[1] = biological target: T1, PI3Kα (Homo sapiens, UniProt P42336); assay: In vitro PI3 kinase enzyme assay (PI3K ATPLoss); format: biochemical; details: recombinant p110α/p85, residual ATP by bioluminescence
T1 construct: Full length p110 subunits of PI3K α, β and δ, N-terminally labeled with polyHis tag; polyHis (N); made in house; host or cells: Sf9 insect cells (baculovirus)
T1 sequence (P42336 whole entry, species assumed): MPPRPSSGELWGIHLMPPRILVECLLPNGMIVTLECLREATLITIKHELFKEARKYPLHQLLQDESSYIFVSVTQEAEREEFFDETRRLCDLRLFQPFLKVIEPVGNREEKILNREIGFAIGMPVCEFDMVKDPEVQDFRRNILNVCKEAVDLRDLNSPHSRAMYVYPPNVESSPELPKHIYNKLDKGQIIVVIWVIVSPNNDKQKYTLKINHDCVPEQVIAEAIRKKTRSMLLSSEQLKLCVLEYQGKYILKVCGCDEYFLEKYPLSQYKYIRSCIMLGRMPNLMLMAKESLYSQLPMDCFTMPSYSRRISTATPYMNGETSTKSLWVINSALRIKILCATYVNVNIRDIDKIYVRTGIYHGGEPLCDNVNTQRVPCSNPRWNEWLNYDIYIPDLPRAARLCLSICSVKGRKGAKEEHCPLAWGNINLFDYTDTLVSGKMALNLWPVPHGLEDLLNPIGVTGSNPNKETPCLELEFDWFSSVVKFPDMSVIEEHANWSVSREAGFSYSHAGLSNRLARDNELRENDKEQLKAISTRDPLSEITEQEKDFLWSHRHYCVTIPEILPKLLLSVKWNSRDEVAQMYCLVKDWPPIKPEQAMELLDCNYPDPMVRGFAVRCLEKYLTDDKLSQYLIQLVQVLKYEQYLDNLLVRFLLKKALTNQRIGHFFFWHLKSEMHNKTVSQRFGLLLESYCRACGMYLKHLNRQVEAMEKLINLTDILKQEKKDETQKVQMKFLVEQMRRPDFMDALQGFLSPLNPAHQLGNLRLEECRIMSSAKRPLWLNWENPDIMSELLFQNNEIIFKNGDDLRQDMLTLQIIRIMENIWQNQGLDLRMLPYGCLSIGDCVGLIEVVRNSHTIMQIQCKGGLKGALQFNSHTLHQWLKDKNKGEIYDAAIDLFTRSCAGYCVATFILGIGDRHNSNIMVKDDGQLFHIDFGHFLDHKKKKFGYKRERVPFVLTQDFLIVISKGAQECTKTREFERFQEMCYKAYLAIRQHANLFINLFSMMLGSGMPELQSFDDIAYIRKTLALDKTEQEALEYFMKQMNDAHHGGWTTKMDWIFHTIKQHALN
T1 sequence (P27986 whole entry partner, species assumed): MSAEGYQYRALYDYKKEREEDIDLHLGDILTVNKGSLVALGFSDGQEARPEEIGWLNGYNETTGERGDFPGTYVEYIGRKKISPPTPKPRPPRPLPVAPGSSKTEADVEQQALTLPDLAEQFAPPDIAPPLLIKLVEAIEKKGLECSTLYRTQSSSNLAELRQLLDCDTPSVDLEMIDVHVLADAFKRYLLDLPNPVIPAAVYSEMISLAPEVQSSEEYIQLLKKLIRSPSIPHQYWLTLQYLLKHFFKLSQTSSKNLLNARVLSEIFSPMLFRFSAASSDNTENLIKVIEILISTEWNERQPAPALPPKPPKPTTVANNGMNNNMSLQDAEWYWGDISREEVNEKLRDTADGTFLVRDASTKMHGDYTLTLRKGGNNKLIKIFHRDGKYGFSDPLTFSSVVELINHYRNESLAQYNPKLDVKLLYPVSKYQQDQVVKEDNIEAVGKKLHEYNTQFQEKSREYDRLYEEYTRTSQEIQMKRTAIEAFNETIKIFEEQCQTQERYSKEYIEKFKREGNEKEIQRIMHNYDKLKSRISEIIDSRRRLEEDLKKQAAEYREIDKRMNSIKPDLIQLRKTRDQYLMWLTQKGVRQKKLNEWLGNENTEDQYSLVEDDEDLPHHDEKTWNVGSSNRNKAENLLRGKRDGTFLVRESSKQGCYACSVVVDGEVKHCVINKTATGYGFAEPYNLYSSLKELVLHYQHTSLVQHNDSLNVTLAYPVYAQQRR
Description: Full length p110 subunits of PI3K α, β and δ, N-terminally labeled with polyHis tag, can be co-expressed with p85 with Baculo virus expression vectors in sf9 insect cells. P110/p85 heterodimers can be purified by sequential Ni-NTA, Q-HP, Superdex-100 chromatography. Purified α, β and δ isozymes can be stored at −20° C. in 20 mM Tris, pH 8, 0.2M NaCl, 50% glycerol, 5 mM DTT, 2 mM Na cholate. Truncated PI3Kγ, residues 114-1102, N-terminally labeled with polyHis tag, can be expressed with Baculo virus in Hi5 insect cells. The γ isozyme can be purified by sequential Ni-NTA, Superdex-200, Q-HP chromatography. The γ isozyme can be stored frozen at −80° C. in NaH2PO4, pH 8, 0.2M NaCl, 1% ethylene glycol, 2 mM β-mercaptoethanol.
PI3K enzyme assays (alpha, beta, delta and gamma) can be performed in 25 μL with the above final concentrations of components in white polyproplyene plates. Phosphatidyl inositol phosphoacceptor, PtdIns(4,5)P2 (e.g. P4508) can be obtained from Echelon Biosciences, Salt Lake City, Utah. The ATPase activity of the alpha and gamma isozymes may not be greatly stimulated by PtdIns(4,5)P2 under these conditions, it can be omitted from the assay of these isozymes. Test compounds can be dissolved in DMSO and diluted with three-fold serial dilutions. The compound in DMSO (1 μL) may be added per test well, and the inhibition relative to reactions containing no compound, with and without enzyme can be determined. After assay incubation at RT, the reaction can be stopped and residual ATP can be determined by addition of an equal volume of a commercial ATP bioluminescence kit (Perkin Elmer EasyLite, Perkin Elmer, Waltham, Mass.) according to the manufacturer's instructions, and detected using an Analyst GT luminometer.

[2] = test system: phosphorylation of Akt at Serine 473 in U87 MG cells; assay: pAkt AlphaScreen (U87 Cell); format: cell-based; details: Homo sapiens, U-87 MG, 2 h, 2 h compound, pAkt Ser473 AlphaScreen
Description: The pAkt AlphaScreen® assay (PerkinElmer, Waltham, Mass.) determines whether there is phosphorylation of Akt at Serine 473 by recruitment of a phosphospecific antibody. This assay was performed using U87 MG cells. The U87 growth media consists of MEM (Gibco, Carlsbad, Calif.) supplemented with 10% FBS (Gibco), 1× Non-Essential Amino Acids (Gibco) and 1× Penicillin/Streptomycin/Glutamine (Gibco). The cells were maintained weekly using 0.05% Trypsin (Gibco) and replated in 150 mm TC-Treated Culture Dishes (Corning, Corning, N.Y.).
The first day of the assay, the adherent cells were trypsinized, media was added to the loose cells and cells were mixed to a homogenous mixture. 0.5 ml of the homogenous mixture was counted on the Beckman Coulter® Vi-CELL™ XR (Fullerton, Calif.). 50 frames of cells were counted and the number of viable cells was determined. The cells were then diluted to 0.25 million cells per ml, and centrifuged at 200 rcf for 5 minutes. The media was removed and the cells were reconstituted in fresh media for plating. The cells were plated at 20 μl per well on the PerkinElmer® Flexprop PLUS in Low Volume 384 Well White Tissue Culture Plates (Corning) with a final cell density of 5K cells per well. The plates were incubated overnight at 37° Celsius, 5% CO2.
On the second day, the compound plates were prepared, the cells were treated with compound and the pAkt reaction mix was added to the cell lysate. 384 well compound plates were prepared containing 1 μl of compound per well starting at 5 mM and diluted 1:2 across the row, resulting in a 22 well serial dilution. 39 μl of growth media was added to the compound plate in rows 1-22 using the PerkinElmer® FlexDrop PLUS resulting in a DMSO concentration of 2.5%. The cell plates and diluted compound plates were put onto the VELOCITY11™ VPREP™ 384 ST where the compound plate was mixed and 5 μl of serially diluted compound or controls was added to the cell plate. The final concentration of the compounds was 25 μM serially diluted to 11.9 pM in 0.5% DMSO. The cell plates were then incubated with compound for two hours at 37° Celsius, 5% CO2. After two hours, the media in the cell plates was aspirated using the BioTek® ELx405HT plate washer (Winooski, Vt.) removing the majority of media and compound without disturbing the adherent U87 cells. The following assay reagents are components of the SureFire® Akt (Ser 473) Phosphorylation 50K Point Kit (TGR BioSciences, Adelaide, Australia) and an IgG Detection Kit (PerkinElmer, Waltham, Mass.). 5 μl of 1× Lysis Buffer was added to each well using the PerkinElmer® FlexDrop PLUS. The plates were then incubated at room temperature on a shaker for ten minutes. The AlphaScreen® reaction was prepared under low light conditions (subdued or green light) including p-Akt (Ser 473) Reaction Buffer, Dilution Buffer, Activation Buffer, Acceptor Beads and Donor Beads at a ratio of 40:20:10:1:1 respectively. The AlphaScreen® reaction was added to the cell lysate at 6 μl per well using the PerkinElmer® FlexDrop PLUS. The plates were placed in a humid environment to reduce edge effects and incubated overnight at room temperature with restricted air flow in the dark.
On the final day of the experiment, the plates were read on the PerkinElmer® EnVision™ 2103 Multilable Reader using the standard AlphaScreen® readout. The POC is calculated and the data is analyzed to report the IC50 IP for pAkt at Serine 473.

Compound | pIC50 [1] | pIC50 [2]
CC(=O)Nc1cn2nc(-c3cccc(NS(=O)(=O)c4cccc5cnccc45)c3)ccc2n1 [Example 6, N-(6-(3-(Isoquinoline-5-sulfonamido)phenyl)imidazo[1,2-b]pyridazin-2-yl)acetamide] | 7.02 | –
CC(=O)Nc1cn2cc(-c3cncc(N)c3)ccc2n1 [Example 14, N-(6-(5-Aminopyridin-3-yl)H-imidazo[1,2-a]pyridin-2-yl)acetamide] | 6.67 | –
Nc1nc2ccc(-c3cnc(Cl)c(NS(=O)(=O)c4cccc(OC(F)F)c4)c3)nn2c1-c1ccncc1 [Example 45, N-(5-(2-Amino-3-(pyridin-4-yl)imidazo[1,2-b]pyridazin-6-yl)-2-chloropyridin-3-yl)-3-(difluoromethoxy)benzenesulfonamide] | – | 7.57
CC(=O)Nc1cn2nc(-c3cc(NS(=O)(=O)c4ccc(F)cc4)c(Cl)nn3)ccc2n1 [Example 52, N-(6-(6-Chloro-5-(4-fluorophenylsulfonamido)pyridazin-3-yl)imidazo[1,2-b]pyridazin-2-yl)acetamide] | 6.16 | 6.28
CC(=O)Nc1nc2ccc(-c3cnc(Cl)c(NS(=O)(=O)c4cccc(OC(F)F)c4)c3)nn2c1-c1ccncc1 [Example 44, N-(6-(6-Chloro-5-(3-(difluoromethoxy)phenylsulfonamido)pyridin-3-yl)-3-(pyridin-4-yl)imidazo[1,2-b]pyridazin-2-yl)acetamide] | – | 5.13
CC(=O)Nc1nc2ccc(-c3cnc(Cl)c(NS(C)(=O)=O)c3)nn2c1-c1cccc(F)c1 [Example 22, N-(6-(6-Chloro-5-(methylsulfonamido)pyridin-3-yl)-3-(3-fluorophenyl)imidazo[1,2-b]pyridazin-2-yl)acetamide] | 7.82 | 5.49
CC(=O)Nc1cn2nc(-c3cnc(Cl)c(NS(=O)(=O)c4ccc(C)cc4)c3)ccc2n1 [Example 42, N-(6-(6-Chloro-5-(4-methylphenylsulfonamido)pyridin-3-yl)imidazo[1,2-b]pyriadazin-2-yl)acetamide] | 8.22 | 8.30
CS(=O)(=O)Nc1cc(-c2ccc3nc(N)c(-c4cccc(F)c4)n3n2)cnc1Cl [Example 23, N-(5-(2-Amino-3-(3-fluorophenyl)imidazo[1,2-b]pyridazin-6-yl)-2-chloropyridin-3-yl)methanesulfonamide] | 6.99 | 7.26
CC(=O)Nc1nc2ccc(-c3cnc(Cl)c(NS(=O)(=O)c4ccc(F)cc4)c3)nn2c1-c1ccncc1 [Example 48, N-(6-(6-Chloro-5-(4-fluorophenylsulfonamido)pyridin-3-yl)-3-(pyridin-4-yl)imidazo[1,2-b]pyridazin-2-yl)acetamide] | – | 7.74
CC(=O)Nc1cn2cc(-c3ccnc(Cl)n3)ccc2n1 [Example 53, N-(6-(2-Chloropyrimidin-4-yl)H-imidazo[1,2-a]pyridin-2-yl)acetamide] | 5.73 | –
CC(=O)Nc1nc2ccc(-c3cnc(Cl)c(NS(C)(=O)=O)c3)nn2c1-c1ccc(F)c(C(=O)N2CCOCC2)c1 [Example 24, N-(6-(6-chloro-5-(methylsulfonamido)pyridin-3-yl)-3-(4-fluoro-3-(morpholine-4-carbonyl)phenyl)imidazo[1,2-b]pyridazin-2-yl)acetamide] | 7.03 | ≤ 4.60
CS(=O)(=O)Nc1cc(-c2ccc3nc(N)c(-c4ccncc4)n3n2)cnc1Cl [Example 27, N-(5-(2-Amino-3-(pyridin-4-yl)imidazo[1,2-b]pyridazin-6-yl)-2-chloropyridin-3-yl)methanesulfonamide] | 6.81 | 5.46
CC(=O)Nc1nc2ccc(-c3cnc(Cl)c(NS(=O)(=O)c4cccc(OC(F)F)c4)c3)nn2c1-c1cccnc1 [Example 49, N-(6-(6-Chloro-5-(3-(difluoromethoxy)phenylsulfonamido)pyridin-3-yl)-3-(pyridin-3-yl)imidazo[1,2-b]pyridazin-2-yl)acetamide] | – | 5.41
CC(=O)Nc1nc2ccc(-c3cnc(Cl)c(NS(C)(=O)=O)c3)nn2c1-c1ccncc1 [Example 26, N-(6-(6-Chloro-5-(methylsulfonamido)pyridin-3-yl)-3-(pyridin-4-yl)imidazo[1,2-b]pyridazin-2-yl)acetamide] | 8.05 | 5.19
CC(=O)Nc1nc2ccc(-c3cnc(Cl)c(NS(=O)(=O)c4cccc(OC(F)F)c4)c3)nn2c1-c1ccnc(C)c1 [Example 46, N-(6-(6-Chloro-5-(3-(difluoromethoxy)phenylsulfonamido)pyridin-3-yl)-3-(2-methylpyridin-4-yl)imidazo[1,2-b]pyridazin-2-yl)acetamide] | – | 5.24
Cc1cc(-c2c(N)nc3ccc(-c4cnc(Cl)c(NS(=O)(=O)c5cccc(OC(F)F)c5)c4)nn23)ccn1 [Example 47, N-(5-(2-Amino-3-(2-methylpyridin-4-yl)imidazo[1,2-b]pyridazin-6-yl)-2-chloropyridin-3-yl)-3-(difluoromethoxy)benzenesulfonamide] | – | 7.85
Nc1nc2ccc(-c3cnc(Cl)c(NS(=O)(=O)c4cccc(OC(F)F)c4)c3)nn2c1-c1cccnc1 [Example 50, N-(5-(2-Amino-3-(pyridin-3-yl)imidazo[1,2-b]pyridazin-6-yl)-2-chloropyridin-3-yl)-3-(difluoromethoxy)benzenesulfonamide] | – | 6.93
Nc1nc2ccc(-c3cnc(Cl)c(NS(=O)(=O)c4cccc(OC(F)F)c4)c3)nn2c1C1=CCNCC1 [Example 51, N-(5-(2-Amino-3-(1,2,3,6-tetrahydropyridin-4-yl)imidazo[1,2-b]pyridazin-6-yl)-2-chloropyridin-3-yl)-3-(difluoromethoxy)benzenesulfonamide] | – | 6.36
CC(=O)Nc1cn2nc(-c3cccc(N)c3)ccc2n1 [Example 5, N-(6-(3-Aminophenyl)imidazo[1,2-b]pyridazin-2-yl)acetamide] | 6.01 | –
Nc1cn2cc(-c3cnc(Cl)c(NS(=O)(=O)c4ccc(F)cc4)c3)ccc2n1 [Example 29, N-(5-(2-Aminoimidazo[1,2-a]pyridin-6-yl)-2-chloropyridin-3-yl)-4-fluorobenzenesulfonamide] | 7.19 | –
CC(=O)Nc1cn2cc(-c3cncc(NCCC(C)(C)C)c3)ccc2n1 [Example 18, N-(6-(5-(3,3-Dimethylbutylamino)pyridin-3-yl)H-imidazo[1,2-a]pyridin-2-yl)acetamide] | 6.68 | –
CC(=O)Nc1cn2nc(-c3ccnc(F)c3)ccc2n1 [Example 3, N-(6-(2-Fluoropyridin-4-yl)imidazo[1,2-b]pyridazin-2-yl)acetamide] | 6.11 | –
